What all share (assay type): in vivo
Test [1] deals with Green Peach Aphid (Myzus persicae, MYZUPE, GPA). Briefly: Bioassay 1: green peach aphid, cabbage seedling foliar spray. To be noted: AI alone at the rate of Wt Ratio F1:AI 1:40000 (F1 0.04), 3 days. The method, then: Bioassay 1: Green Peach Aphid (Myzus persicae, MYZUPE, “GPA”).
Stock solutions of F1 and various active ingredients were prepared initially at a concentration of 4 milligrams per milliliter (mg/mL) for F1 and 0.1 mg/mL for the active ingredients, respectively, using a 1:1 mixture of acetone:methanol as a diluent. Stock solutions were prepared with F1 as well as for each of the active ingredients individually. Test solutions were prepared from the stock solutions. Test solutions were prepared containing F1, the individual active ingredients, and mixtures of F1 with each of the active ingredients. The test solutions for F1 and the individual active ingredients were prepared by adding 750 microliters (μL) of stock solution to a 25 mL glass vial, then adding 750 μL of 1:1 acetone:methanol solvent, followed by the addition of 13.5 mL water with 0.025% Tween® 20 to create a 0.0005% (weight/volume (w/v)) solution. The test solutions containing mixtures of F1, and the individual active ingredients were prepared by adding 750 μL of the active ingredient stock solution to a 25 mL glass vial, followed by 750 μL of the F1 stock solution, then by the addition of 13.5 mL water with 0.025% Tween® 20 to create a test solution containing 0.0005% (w/v) F1 and 0.0005% (w/v) of the active ingredient. Each test solution was serially diluted to create desired doses of test solutions (0.0005% (w/v), 0.000125% (w/v), 0.00003125% (w/v), 0.0000078% (w/v), 0.00000195% (w/v), and 0.0000005% (w/v)). In test solutions containing mixtures of F1 and the active ingredients, the active ingredients were diluted as described above, but the concentration of F1 was held constant (0.04% (w/v)).
The test solutions were tested against GPA using the following procedure: cabbage seedlings, grown in 3-inch pots with 2-3 small (3-5 centimeter (cm)) true leaves, were used as test substrate. The seedlings were infested with 20-50 GPA (wingless adult and nymph stages) one day prior to chemical application. Four pots with individual seedlings were used for each treatment. A hand-held aspirator-type sprayer was used for spraying a solution to both sides of […] leaves until runoff. Reference plants (solvent check) were sprayed with the diluent only (0.025% Tween® 20 and 10% acetone:methanol (1:1) in water). Treated plants were held in a holding room for three days at approximately 25° C. and ambient relative humidity (RH about 20% to about 45%) prior to grading. Evaluation was conducted by counting the number of live aphids per plant under a microscope three days after treatment. Percent control was measured using Abbott's correction formula (W. S. Abbott, J. Econ. Entomol. 18 (1925), pp. 265-267) as follows:
where X=No. of live aphids on solvent check plants and Y=No. of live aphids on treated plants. In Table B1 the “Expected % Control” was calculated using the method described in Colby S. R., Weeds, 1967, 15, 20-22. Bioassay 2: Sweet Potato Whitefly (Bemisia tabaci, BEMITA, “SPW”).

The test system of test [2] is Soybean Looper (Chrysodeixis includens, PSEPIN, SBL). Briefly: Bioassay 4: soybean looper, artificial diet, 128-cell tray. Conditions: AI alone. On the procedure: (§1) Stock solutions were prepared with F1 as well as for each of the active ingredients individually. Test solutions were prepared from the stock solutions. Test solutions were prepared containing F1, the individual active ingredients, and mixtures of F1 with each of the active ingredients. The test solution for F1 was prepared by adding 500 μL of the stock solution to a 25 mL glass vial, then adding 500 μL of a 9:1 mixture of acetone:water. The individual active ingredients were prepared by adding 500 μL of stock solution to a 25 mL glass vial, then adding 500 μL of a 9:1 mixture of acetone:water. The test solutions containing mixtures of F1, and the individual active ingredients were prepared by adding 500 μL of the active ingredient stock solution to a 25 mL glass vial, followed by 500 μL of the F1 stock solution, creating a test solution containing 0.04% (w/v) of F1 and 0.4% (w/v) of the active ingredient. Each test solution was serially diluted to create desired doses of test solutions (F1 at 0.04% (w/v), 0.004% (w/v), 0.0004% (w/v), 0.00004% (w/v), 0.000004% (w/v), and 0.0000004% (w/v) and active ingredients at 0.4% (w/v), 0.04% (w/v), 0.004% (w/v), 0.0004% (w/v), 0.00004% (w/v), and 0.000004% (w/v)).
(§2) The test solutions were tested against CEW, FAW, and SBL using the following procedure: an artificial lepidopteran diet (Multispecies Lepidopteran Diet, Southland Products) was distributed in 128-cell bioassay trays (Frontier Agricultural Sciences™). 50 μL of test solution was pipetted into a cell in the bioassay tray. (The test solution doses of 0.04% (w/v), 0.004% (w/v), 0.0004% (w/v), 0.00004% (w/v), 0.000004% (w/v), and 0.0000004% (w/v) translated to concentrations of 5, 0.5, 0.05, 0.005, 0.0005, and 0.00005 μg/cm^2 on the diet, respectively.) A reference treatment (solvent check) was treated with the diluent only. Each treatment was replicated 8 times for each species. A 2nd instar CEW, FAW, or SBL larva was placed on top of the diet in each cell and was contained with a clear perforated adhesive lid. Test trays were held at approximately 26° C. and ambient relative humidity (RH) prior to grading.
(§3) After 5 days, the number of live larvae were recorded from each cell and percent control was measured using Abbott's correction formula (W. S. Abbott, J. Econ. Entomol. 18 (1925), pp. 265-267) as follows:
(§4) where X=No. of live larvae on solvent check and Y=No. of live larvae on treated diet. In Table B4 the “Expected % Control” was calculated using the method described in Colby S. R., Weeds, 1967, 15, 20-22. Bioassay 5: Neotropical Brown Stink Bug (Euschistus heros, EUSCHE, “BSB”).

For test [3], the system named is Fall Armyworm (Spodoptera frugiperda, LAPHFR, FAW). Put plainly: Bioassay 4: fall armyworm, artificial diet, 128-cell tray. Conditions: AI alone. The method, then:
as §1, §2, §3, §4

Test [4] relates to Sweet Potato Whitefly (Bemisia tabaci, BEMITA, SPW). Put plainly: Bioassay 2: sweet potato whitefly, cotton seedling foliar spray. To be noted: AI alone. The method, then:
Stock solutions were prepared with F1 as well as for each of the active ingredients individually. Test solutions were prepared from the stock solutions. Test solutions were prepared containing F1, the individual active ingredients, and mixtures of F1 with each of the active ingredients. The test solutions for F1 and the individual active ingredients were prepared by adding 500 μL of stock solution to a 25 mL glass vial, then adding 500 μL of acetone, followed by the addition of 9 mL water with 0.025% Tween® 20 to create a 0.001% (w/v) solution. The test solutions containing mixtures of F1, and the individual active ingredients were prepared by adding 500 μL of the active ingredient stock solution to a 25 mL glass vial, followed by 500 μL of the F1 stock solution, then by the addition of 9 mL water with 0.025% Tween® 20 to create a test solution containing 0.001% (w/v) F1 and 0.001% (w/v) of the active ingredient. Each test solution was serially diluted to create desired doses of test solutions (0.001% (w/v), 0.0001% (w/v), 0.00001% (w/v), 0.000001% (w/v), 0.0000001% (w/v), and 0.00000001% (w/v)).
The test solutions were tested against SPW using the following procedure: Cotton seedlings grown in 3-inch pots, pruned so that only one true leaf remained, were used as test substrate. Adult B. tabaci were allowed to colonize the cotton plants and lay eggs for 24 hours after which all adults were removed from the plants using compressed air. Plants were monitored for egg development, and when crawler emergence was underway (>25% emergence based on visual examination using a microscope), the plants were sprayed using the test solutions and methods described above for green peach aphids (GPA). Treated plants were held in a holding room at approximately 25° C. and ambient relative humidity (RH) prior to grading. Evaluation was conducted by counting the number of developed 2-3 instar nymphs per plant under a microscope 7-9 days after treatment. Percent control was measured using Abbott's correction formula (W. S. Abbott, J. Econ. Entomol. 18 (1925), pp. 265-267) as follows:
where X=No. of live nymphs on solvent check plants and Y=No. of live nymphs on treated plants. In Table B2 the “Expected % Control” was calculated using the method described in Colby S. R., Weeds, 1967, 15, 20-22. Bioassay 3: Western Flower Thrips (Frankliniella occidentalis, FRANOC, “WFT”).

Test [5] deals with Corn Earworm (Helicoverpa zea, HELIZE, CEW). Briefly: Bioassay 4: corn earworm, artificial diet, 128-cell tray. Conditions: AI alone. The method, then: as §1, §2, §3, §4
For test [6], the system named is Western Flower Thrips (Frankliniella occidentalis, FRANOC, WFT). Briefly: Bioassay 3: western flower thrips, cotton leaf disc dip. To be noted: 3 days. On the procedure:
Stock solutions of F1 and various active ingredients were prepared initially at a concentration of 0.1 mg/mL using acetone as a diluent. Stock solutions were prepared with F1 as well as for each of the active ingredients individually. Test solutions were prepared from the stock solutions. Test solutions were prepared containing F1, the individual active ingredients, and mixtures of F1 with each of the active ingredients. The test solutions for F1 and the individual active ingredients were prepared by adding 500 μL of stock solution to a 25 mL glass vial, then adding 500 μL of acetone, followed by the addition of 9 mL water with 0.025% Tween® 20 to create a 0.0005% (w/v) solution. The test solutions containing mixtures of F1, and the individual active ingredients were prepared by adding 500 μL of the active ingredient stock solution to a 25 mL glass vial, followed by 500 μL of the F1 stock solution, then by the addition of 9 mL water with 0.025% Tween® 20 to create a test solution containing 0.0005% (w/v) F1 and 0.0005% (w/v) of the active ingredient. Each test solution was serially diluted to create desired doses of test solutions (0.0005% (w/v), 0.000125% (w/v), 0.00003125% (w/v), 0.0000078% (w/v), and 0.00000195% (w/v)).
The test solutions were tested against WFT using the following procedure: Leaf discs (2.7 cm in diameter) were cut from the true leaves of cotton plants. Leaf discs were dipped into the test solutions and shaken to ensure complete coverage of the leaf disc and then placed in Millipore® PetriSlides containing a filter paper disc. Treated leaf discs were air dried for approximately 1 hour. Each leaf disc was infested with 5 WFT (9-10-day old nymphs) by placement on each leaf disc, and the PetriSlides were capped to prevent escape. Each treatment was replicated three times and the test treatments were held at approximately 26° C. and ambient relative humidity (RH) prior to grading. Reference discs (solvent check) were treated with the diluent only. Evaluation was conducted by counting the number of live WFT under magnification 3 days after treatment. Percent control was measured using Abbott's correction formula (W. S. Abbott, J. Econ. Entomol. 18 (1925), pp. 265-267) as follows:
where X=No. of live nymphs on solvent check leaf discs and Y=No. of live nymphs on treated leaf discs. In Table B3 the “Expected % Control” was calculated using the method described in Colby S. R., Weeds, 1967, 15, 20-22. Bioassay 4: Corn Earworm (Helicoverpa zea, HELIZE, “CEW”), Fall Armyworm (Spodoptera frugiperda, LAPHFR, “FAW”), and Soybean Looper (Chrysodeixis includens, PSEPIN, “SBL”).

In the case of `CNC(=O)c1cc(Cl)cc(C)c1NC(=O)c1cc(Br)nn1-c1ncccc1Cl` [Chlorantraniliprole], the “Average % Control AI” value was determined as 8.1% in test [1]; 37.5% in test [2] (0.000004 wt %); 62.5% in test [3] (0.000004 wt %); 28.0% in test [4] (Wt % AI 0.0001, 7-9 days); 0.0% in test [5] (0.000004 wt %); 0.0% in test [5] (0.00004 wt %).
With `N#Cc1nn(-c2c(Cl)cc(C(F)(F)F)cc2Cl)c(N)c1[S+]([O-])C(F)(F)F` (stereo not drawn) [Fipronil], the “Average % Control AI” value came to 9.5% in test [6] (AI alone at 1:1 rate to F1 0.195 (10^-6 Wt %)); 42.9% in test [6] (AI alone at 1:1 rate to F1 3.125 (10^-6 Wt %)); 0.0% in test [2] (0.000004 wt %); 0.0% in test [2] (0.00004 wt %); 0.0% in test [3] (0.000004 wt %); 0.0% in test [3] (0.00004 wt %). Further, the “Average % Control AI” value in test [4] (Wt % AI 0.0001, 7-9 days) turned out to be 8.9%; in test [5] (0.000004 wt %), 0.0%; in test [5] (0.00004 wt %), 0.0%.
In the case of `O=c1c(-c2cccc(C(F)(F)F)c2)c([O-])[n+](Cc2cncnc2)c2ccccn12` [Triflumezopyrim], the “Average % Control AI” value in test [2] (0.000004 wt %) was determined as 12.5%; in test [3] (0.000004 wt %), 0.0%; in test [4] (Wt % AI 0.000001, 7-9 days), 10.1%; in test [4] (Wt % AI 0.00001, 7-9 days), 31.4%; in test [5] (0.000004 wt %), 0.0%; in test [5] (0.00004 wt %) it was 0.0%.

Source of the values: US20260182575A1, “MOLECULES HAVING PESTICIDAL UTILITY AND INTERMEDIATES AND PROCESSES RELATED THERETO” (CORTEVA AGRISCIENCE LLC, priority 2022, published 2026).
